{"source": "patent US8440199B2", "about": "“Methods for mobilizing mesenchymal stem cells in a patient” (Imperial Innovations Limited, priority 2007, dated 2013)", "key": {"[1]": {"system": "haematopoietic progenitor cells (HPC)", "assay": "Example 1: HPC mobilisation, hind limb bone marrow perfusion and circulating blood, CFU-HPC assay", "type": "in vivo, mice", "details": "G-CSF or VEGF 2.5 μg on 4 consecutive days, then AMD3100 (0.1 mM infusion or 5 mg/kg i.p.); perfusate and blood, FIGS. 1-4", "procedure": "Assay was performed in duplicate Mobilised cells were maintained in semi-solid methylcellulose cultures for 11 days before quantification of the number of CFU-HPCs."}, "[2]": {"system": "neutrophils", "details": "VEGF pre-treatment 4 days, KC 30 μg/kg i.v., 60 minutes, FIG. 24c", "quoted_text": "24 hours later these mice underwent perfusion of the right hind limb. CXCR4 antagonist (AMD3100 0.1 mM, closed bars) or vehicle (PBS, open bars) were then infused directly into the femoral artery for 10 minutes. The hind limb was then perfused for a further 50 minutes to allow collection of a, neutrophils via the femoral vein. […] The hind limb was again perfused for a further 50 minutes to allow b, collection of neutrophils. […] Data: mean±s.e.m. *: P<0.05, ***: P<0.001 between selected groups.\n(§3) Female BALB/c mice were purchased from Harlan (Oxford, United Kingdom). […] 24 hours after the last injection, mice were administered a CXCR4 antagonist (AMD3100, 5 mg/kg i.p), KC (30 μg/kg i.v.) or vehicle and blood was collected via cardiac puncture 60 minutes later for enumeration of circulating leukocyte, HPC, EPC, and stromal progenitor cell levels.\n(§4) The perfusate was centrifuged and re-suspended in DMEM+20% FBS. In some experiments citrated blood was obtained via cardiac bleed and lysed for red blood cells. Bone marrow and perfusate cytospins, and blood smears were stained using DiffQuik for the enumeration of mononuclear cells, eosinophils, and neutrophils. Bone marrow, perfusate and lysed blood were then used for assays outlined below to enumerate HPCs (CFU-HPC), EPCs (CFU-EPC), SPCs (CFU-F)."}, "[3]": {"system": "neutrophils", "assay": "Leukocyte counts of bone marrow", "type": "in vivo, mice", "details": "treated 4 days, compared to controls, FIG. 24f", "quoted_text": "24 hours later these mice underwent perfusion of the right hind limb. CXCR4 antagonist (AMD3100 0.1 mM, closed bars) or vehicle (PBS, open bars) were then infused directly into the femoral artery for 10 minutes. The hind limb was then perfused for a further 50 minutes to allow collection of a, neutrophils via the femoral vein. […] The hind limb was again perfused for a further 50 minutes to allow b, collection of neutrophils.\nThe perfusate was centrifuged and re-suspended in DMEM+20% FBS. […] Bone marrow and perfusate cytospins, and blood smears were stained using DiffQuik for the enumeration of mononuclear cells, eosinophils, and neutrophils."}, "[4]": {"system": "CXCR4", "assay": "Flow cytometry of CXCR4 expression on bone marrow HPCs and EPCs", "type": "in vivo, mice", "details": "treated 4 days", "procedure": "(§1) Bone marrow was aspirated on day 5 and harvested cells were used to determine a, SDF-1α levels in bone marrow supernatant as determined by ELISA; b, % of bone marrow Lin^− Sca-1^+ cells expressing CXCR4; and c, % of bone marrow CD34^+ VEGFR2^+ cells expressing CXCR4. Harvested cells were also utilized in the following chemotaxis assays: d, number of HPCs; and e, EPCs undergoing chemotaxis towards 30 nM SDF-1α. Cells taken from bone marrow of mice treated with G-CSF (closed bars) or vehicle (PBS, open bars). f, number of HPCs; and g, EPCs undergoing chemotaxis towards 30 nM SDF-1α.\n(§2) For flow cytometric analysis, cells were re-suspended in FACS buffer. To identify neutrophils in the bone marrow, surface expression of the granulocyte marker Ly-6G/Ly6C (Gr-1) was determined. Neutrophils were identified as Gr-1^high positive cells with a characteristic high side scatter profile. HPCs residing in the BM were selected as being negative for lineage (Lin^−) markers: CD3e, CD11b, CD45R, Ly-76, and Gr-1 and positive for Sca-1 (Lin^− Sca-1^+ cells) (Gerber et al., 2002; Uchida, et al., 1997). EPCs residing in the BM were selected as being positive for both CD34 and VEGFR2 (CD34^+ VEGFR2^+ cells) (Asahara et al., 1997; Yoon et al., 2005). Furthermore, neutrophils were stained for the surface expression of CXCR2, whilst Lin^− Sca-1^+ cells and CD34^+ VEGFR2^+ cells were stained for the cell surface expression of CXCR4. Samples were then washed and then quantified on a FACSAria cell sorter (BD Biosciences, Oxford, United Kingdom) and analysed using FACSDiva software."}, "[5]": {"system": "SPCs", "assay": "CFU-SPC bone marrow frequency", "type": "in vivo, mice", "details": "treated over 4 days, compared to controls, FIG. 22c", "quoted_text": "24 hours after the last injection, bone marrow was aspirated for the enumeration of a, CFU-HPC bone marrow frequency; b, CFU-EPC bone marrow frequency; and c, CFU-SPC bone marrow frequency.\nas §3, §4\n5×10^5 cells were added to Mesencult media including supplements (Stemcell Technologies). Dishes were incubated for 7 days before media was changed, and then incubated for a further 14 days before the enumeration of SPC colonies (CFU-F)."}, "[6]": {"system": "EPCs", "assay": "In vitro chemotaxis of bone marrow EPCs towards SDF-1α", "type": "cell-based", "details": "bone marrow cells of mice treated 4 days; 30 nM SDF-1α, FIG. 23e, 23g", "procedure": "as §1"}, "[7]": {"system": "HPC colonies", "details": "colonies grown from bone marrow of treated mice, FIGS. 25a, 25b", "procedure": "a, number of cells per colony; and b, mean colony area; of CFU-HPC grown for […] in methocult.\nMobilized cells were incubated for 11 days before quantification."}, "[8]": {"system": "Lin^− Sca-1^+ HPCs", "assay": "PI staining, cell cycle status of Lin- Sca-1+ HPCs", "type": "in vivo, mice", "details": "treated 4 days, FIG. 25c", "procedure": "as §2, with “Furthermore, neutrophils were stained for the surface expression of CXCR2, whilst Lin^− Sca-1^+ cells and CD34^+ VEGFR2^+ cells were stained for the cell surface expression of CXCR4.” left out\nLin^− Sca-1^+ cells and CD34^+ VEGFR2^+ cells were analysed to determine their cell cycling status using a propidium iodide (PI) stain. […] A dotplot of PI-Width against PI-Area was recorded. Aggregates of cells were detected as cells having a larger PI-W profile and were not included in the gate. […] To calculate the percentage of cells undergoing active cell cycling, a marker was set to exclude the G0/G1 peak and the percentage of cells in S/G2/M was calculated."}}, "data": [{"substance": "VEGF", "values": [{"measurement": "HPC mobilization", "setting": "[1]", "value": "inhibits the capacity for AMD3100 to mobilize HPCs"}, {"measurement": "KC-induced mobilization of neutrophils in vivo", "setting": "[2]", "value": "completely abrogated"}, {"measurement": "numbers of neutrophils in the bone marrow", "setting": "[3]", "value": "significant reduction in absolute numbers of mature neutrophils"}, {"measurement": "CXCR4 expression on EPCs", "setting": "[4]; CD34+ VEGFR2+ bone marrow cells, FIG. 23c", "value": "did not alter the expression of CXCR4 on either HPCs or EPCs"}, {"measurement": "CXCR4 expression on HPCs", "setting": "[4]; Lin- Sca-1+ bone marrow cells, FIG. 23b", "value": "did not alter the expression of CXCR4 on either HPCs or EPCs"}, {"measurement": "frequency/number of SPCs in the bone marrow", "setting": "[5]", "value": "no difference was observed"}, {"measurement": "EPC chemotaxis towards SDF-1α", "setting": "[6]", "value": "had no effect on EPC migration"}, {"measurement": "cellular content and size of HPC colonies", "setting": "[7]", "value": "significant increase in both their cellular content and size"}, {"measurement": "percentage of Lin- Sca-1+ HPCs in S/G2/M phase of the cell-cycle", "setting": "[8]", "value": "significant increase in the percentage of BM-HPCs"}]}]}
